#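 Tested at 5 concentrations; 48 h exposure; 96-well plates; endpoints linearly interpolated, else capped at highest concentration. Here, GI50 denotes the concentration required for 50% inhibition of growth.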 The source made the active and inactive calls. Rule as the data show it: active = GI50 up to about 1.1 µM and inactive = higher.
# Key:
# Test in all cases: NCI tumour cell line growth inhibition, 48 h
# [1] = tested on: 786-0
# [2] = tested on: A498
# [3] = tested on: ACHN
# [4] = tested on: BT-549
# [5] = tested on: CAKI-1
# [6] = tested on: COLO 205
# [7] = tested on: DU-145
# [8] = tested on: EKVX
# [9] = tested on: HCC 2998
# [10] = tested on: HCT-116
# [11] = tested on: HCT-15
# [12] = tested on: HL-60
# [13] = tested on: HOP-62
# [14] = tested on: HOP-92
# [15] = tested on: HT-29
# [16] = tested on: Hs-578T
# [17] = tested on: IGROV-1
# [18] = tested on: K562
# [19] = tested on: KM12
# [20] = tested on: LOX IMVI
# [21] = tested on: MCF7
# [22] = tested on: MDA-MB-231
# [23] = tested on: MDA-MB-435
# [24] = tested on: MDA-N
# [25] = tested on: MOLT-4
# [26] = tested on: Malme-3M
# [27] = tested on: NCI-H226
# [28] = tested on: NCI-H23
# [29] = tested on: NCI-H460
# [30] = tested on: NCI-H522
# [31] = tested on: NCI/ADR-RES
# [32] = tested on: OVCAR-3
# [33] = tested on: OVCAR-4
# [34] = tested on: OVCAR-5
# [35] = tested on: OVCAR-8
# [36] = tested on: PC-3
# [37] = tested on: RPMI-8226
# [38] = tested on: RXF 393
# [39] = tested on: SF-295
# [40] = tested on: SK-MEL-28
# [41] = tested on: SK-MEL-2
# [42] = tested on: SK-MEL-5
# [43] = tested on: SK-OV-3
# [44] = tested on: SN12C
# [45] = tested on: SNB-75
# [46] = tested on: SW-620
# [47] = tested on: T47D
# [48] = tested on: TK-10
# [49] = tested on: U-251
# [50] = tested on: UACC-257
# [51] = tested on: UACC-62
# [52] = tested on: A549
# [53] = tested on: CCRF-CEM
# [54] = tested on: M14
# [55] = tested on: SF-268
# [56] = tested on: SNB-19
# [57] = tested on: SR
# [58] = tested on: UO-31
compound,measurement,setting,value
CC(=O)N[C@H]1CCCC[C@@H]1OC(C)=O,GI50,[1],> 100 µM (inactive)
same,GI50,[2],> 100 µM (inactive)
same,GI50,[3],> 100 µM (inactive)
same,GI50,[4],> 100 µM (inactive)
same,GI50,[5],> 100 µM (inactive)
same,GI50,[6],> 100 µM (inactive)
same,GI50,[7],> 100 µM (inactive)
same,GI50,[8],> 100 µM (inactive)
same,GI50,[9],> 100 µM (inactive)
same,GI50,[10],> 100 µM (inactive)
same,GI50,[11],> 100 µM
same,GI50,[12],> 100 µM (inactive)
same,GI50,[13],> 100 µM (inactive)
same,GI50,[14],> 100 µM (inactive)
same,GI50,[15],> 100 µM (inactive)
same,GI50,[16],> 100 µM (inactive)
same,GI50,[17],> 100 µM (inactive)
same,GI50,[18],> 100 µM (inactive)
same,GI50,[19],> 100 µM (inactive)
same,GI50,[20],> 100 µM (inactive)
same,GI50,[21],> 100 µM (inactive)
same,GI50,[22],> 100 µM (inactive)
same,GI50,[23],> 100 µM (inactive)
same,GI50,[24],> 100 µM (inactive)
same,GI50,[25],> 100 µM (inactive)
same,GI50,[26],> 100 µM (inactive)
same,GI50,[27],> 100 µM (inactive)
same,GI50,[28],> 100 µM (inactive)
same,GI50,[29],> 100 µM (inactive)
same,GI50,[30],> 100 µM (inactive)
same,GI50,[31],> 100 µM (inactive)
same,GI50,[32],> 100 µM (inactive)
same,GI50,[33],> 100 µM (inactive)
same,GI50,[34],> 100 µM (inactive)
same,GI50,[35],> 100 µM (inactive)
same,GI50,[36],> 100 µM (inactive)
same,GI50,[37],> 100 µM (inactive)
same,GI50,[38],> 100 µM (inactive)
same,GI50,[39],> 100 µM (inactive)
same,GI50,[40],> 100 µM (inactive)
same,GI50,[41],> 100 µM (inactive)
same,GI50,[42],> 100 µM (inactive)
same,GI50,[43],> 100 µM (inactive)
same,GI50,[44],> 100 µM (inactive)
same,GI50,[45],> 100 µM (inactive)
same,GI50,[46],> 100 µM (inactive)
same,GI50,[47],> 100 µM (inactive)
same,GI50,[48],> 100 µM (inactive)
same,GI50,[49],> 100 µM (inactive)
same,GI50,[50],> 100 µM (inactive)
same,GI50,[51],> 100 µM (inactive)
O=c1[nH]c(=O)n(C2CC(O)C(CO)O2)cc1/N=N/NCCc1ccccc1 (centres undefined),GI50,[1],> 100 µM (inactive)
same,GI50,[52],> 100 µM (inactive)
same,GI50,[3],> 100 µM (inactive)
same,GI50,[4],> 10 µM (inactive)
same,GI50,[5],> 100 µM (inactive)
same,GI50,[53],> 100 µM (inactive)
same,GI50,[6],> 100 µM (inactive)
same,GI50,[7],> 100 µM (inactive)
same,GI50,[8],> 100 µM (inactive)
same,GI50,[10],> 100 µM (inactive)
same,GI50,[11],> 100 µM
same,GI50,[12],> 100 µM (inactive)
same,GI50,[13],> 100 µM (inactive)
same,GI50,[15],> 100 µM (inactive)
same,GI50,[16],> 100 µM (inactive)
same,GI50,[17],> 100 µM (inactive)
same,GI50,[18],> 100 µM (inactive)
same,GI50,[19],> 100 µM (inactive)
same,GI50,[20],> 100 µM (inactive)
same,GI50,[54],> 100 µM (inactive)
same,GI50,[21],> 100 µM (inactive)
same,GI50,[22],> 100 µM (inactive)
same,GI50,[23],> 100 µM (inactive)
same,GI50,[24],> 100 µM (inactive)
same,GI50,[25],> 100 µM (inactive)
same,GI50,[26],> 100 µM (inactive)
same,GI50,[27],> 100 µM (inactive)
same,GI50,[28],> 100 µM (inactive)
same,GI50,[29],> 100 µM (inactive)
same,GI50,[30],> 100 µM (inactive)
same,GI50,[31],> 100 µM (inactive)
same,GI50,[32],> 100 µM (inactive)
same,GI50,[33],> 100 µM (inactive)
same,GI50,[34],> 100 µM (inactive)
same,GI50,[35],> 100 µM (inactive)
same,GI50,[36],> 100 µM (inactive)
same,GI50,[37],> 100 µM (inactive)
same,GI50,[38],> 100 µM (inactive)
same,GI50,[55],> 100 µM (inactive)
same,GI50,[39],> 100 µM (inactive)
same,GI50,[40],> 100 µM (inactive)
same,GI50,[42],> 100 µM (inactive)
same,GI50,[43],> 100 µM (inactive)
same,GI50,[44],> 100 µM (inactive)
same,GI50,[56],> 100 µM (inactive)
same,GI50,[45],> 100 µM (inactive)
same,GI50,[57],> 100 µM (inactive)
same,GI50,[47],> 100 µM (inactive)
same,GI50,[48],> 100 µM (inactive)
same,GI50,[49],> 100 µM (inactive)
same,GI50,[50],> 100 µM (inactive)
same,GI50,[51],> 100 µM (inactive)
same,GI50,[58],> 100 µM (inactive)

# Source: ChEMBL document CHEMBL1201862, “PubChem BioAssay data set” (2004)
